{"source": "patent US20090264382A1", "about": "“Methods for Treating Hematopoietic Neoplasms” (priority 2007, published 2009)", "key": {"[1]": {"system": "KG1a leukemic cells", "assay": "Cell cycle analysis with propidium iodide", "format": "cell-based, human", "conditions": "5 and 10 nM, 48 hours"}, "[2]": {"system": "leukemic cells", "assay": "Comet assay for DNA damage", "format": "cell-based, human", "conditions": "after CA4P treatment", "protocol": "DNA damage in CA4P-incubated leukemic cells was assessed by comet assay. The concept behind this assay is based upon the ability of denatured, cleaved DNA fragments to migrate out of the cell under the influence of an electric field, whereas undamaged DNA migrates more slowly and remains within the confines of the nucleus. Evaluation of the DNA “comet” tail shape and migration pattern allows for assessment of DNA damage. Results were expressed as the percentage of cells with a comet tail in 100 randomly selected, non-overlapping cells visualized by standard light microscopy. […] Results of three experiments in duplicate are expressed as the mean of the number of cells with a comet tail (%)±SEM (*p<0.05 as compared with CA4P-untreated cells; n=3)."}, "[3]": {"system": "KG1a leukemic cells", "assay": "Release of nuclear HMG1 protein into supernatant (necrosis marker), Western blot", "format": "cell-based, human", "conditions": "24 hours, CA4P 20 mM, staurosporine 100 μM as printed", "protocol": "Nonetheless, to rule out the possibility that CA4P may trigger necrotic cell death in subsets of the leukemic cells, the release of nuclear HMG1 protein into the culture supernatant, which has been described as a sensitive and highly specific marker for necrotic cell death (Scaffidi, et al. 2002. Nature 418, 191-5), was quantified. For detection of HMG1 protein, KG1a leukemic cells (1×106 in 2 ml X-vivo/5% FBS) were incubated with 100 μM staurosporine to induce apoptosis, freeze-thawed three times to induce necrosis, or treated with 20 mM CA4P for 24 hours. Cells were spun down, pelleted and the supernatant subjected to Western blot for HMG135."}, "[4]": {"system": "leukemic cells", "assay": "Release of mitochondrial membrane proteins, immunofluorescence", "format": "cell-based, human", "conditions": "after CA4P exposure, data not shown", "description": "Mitochondrial damage may result in the release of pro-apoptotic mitochondrial membrane proteins (MMPs) such as cytochrome c, SMAC/diablo and ARTS. […] Cytochrome c and ARTS were detected using mAb clone 6H2.B4 (1:100, BD Pharmingen) and polyclonal-antibody A3720 (1:50, Sigma), both followed by AlexaFluor 488 conjugated secondary antibody (1:200, Molecular Probes) and analyzed by confocal microscopy."}, "[5]": {"system": "leukemic cells", "assay": "Intracellular ROS detection with H2DCFDA", "format": "cell-based, human", "conditions": "after CA4P exposure", "protocol": "Intracellular ROS were detected as previously described (Krejsa & Schieven, Methods Mol Biol 99:35-47 (2000)). Briefly, leukemic cells were loaded with 2 μM H2DCFDA (Molecular Probes) in assay buffer (RPMI with 10 mM HEPES) for 30 min. at 37° C. and mean fluorescent intensity was measured by flow cytometry. Results are shown from triplicate measurements (±SEM) and are representative of three independent experiments (*p<0.05 as compared with untreated cells; n=3)."}, "[6]": {"system": "HL60 subcutaneous tumors", "assay": "Subcutaneous in vivo leukemia model", "parameters": "species or system NOD-SCID mice", "protocol": "HL60 (5×10^6 cells) were injected subcutaneously into the dorsa of seven-week-old NOD-SCID mice (Jackson Laboratory). When mice bore a tumor (i.e. after 12 days), 4 experimental groups were randomized, each with 9 animals. Daily treatment was initiated at this time: the CA4P groups were subjected to intraperitoneal injection of CA4P at 10, 25 and 50 mg/kg body weight, and the control group received PBS. After a 3-day treatment, animals were sacrificed, tumors removed and then subjected to immunohistochemical analysis. Tumors were embedded in paraffin, serially sectioned, and stained with hematoxylin and eosin for histological analysis. Cell death was assessed by TUNEL assay. Cell death within paraffin-embedded tumor sections was detected by TUNEL reaction (Roche Diagnostics). The detection of cell death in this assay relies on the detection of free 3′OH DNA ends.\nTumors from mice treated with CA4P for 3 days were softer and hemorrhagic (particularly when treated with 50 mg/kg) than those observed in the control group. […] The control tumor sections were negative for TUNEL reaction. […] The extent of intra-tumor vascularization within the different groups was assessed by immunostaining for the endothelial-specific antigen MECA-32. […] The neo-vessel density was evaluated by microscopic counting of 5 fields at 10× magnification, and presented as mean number of microvessels per microscopic field±SEM (*p<0.05 as compared with the PBS control group; n=5). The decrease in intra-tumor vascularization induced by CA4P was dose dependent (54±13%, 68±6% and 90±3% decrease for 10, 25 and 50 mg/kg, respectively)."}, "[7]": {"system": "VCAM-1", "assay": "VCAM-1 immunofluorescence in subcutaneous HL60 AML tumors", "format": "in vivo, NOD-SCID mice", "conditions": "data not shown", "protocol": "CA4P may modulate leukemia-vascular interactions, thereby disrupting chemo-protected niches for leukemic cells. […] NOD-SCID mice with subcutaneous HL60 AML tumors were treated with CA4P or PBS (untreated control)."}, "[8]": {"system": "human umbilical cord derived (CB) CD34+ cells", "assay": "Cord blood CD34+ cell viability and colony formation", "format": "cell-based", "protocol": "Cord blood CD34+ cells were isolated by magnetic procedure and cultured with recombinant human SCF (50 ng/ml, Peprotech) and CA4P for 48 h. Annexin/PI staining was then performed. CD34+ cells were also cultured in methylcellulose supplemented with cytokines and CA4P (Stem cell technologies, Vancouver, Canada) for 14 days. Colonies were scored. […] As such, CA4P used as single agent can selectively target circulating and or tissue-resident hematopoietic neoplasms without incurring significant hematological toxicity."}}, "data": [{"compound": "COc1ccc(/C=C\\c2cc(OC)c(OC)c(OC)c2)cc1OP(=O)(O)O", "note": "[CA4P, combretastatin A-4 phosphate]", "values": [{"measurement": "cell cycle effect", "setting": "[1]", "result": "G2/M arrest"}, {"measurement": "number of leukemic cells displaying a comet tail", "setting": "[2]", "result": "strongly increased"}, {"measurement": "release of nuclear HMG1 protein into the supernatant", "setting": "[3]", "result": "not"}, {"measurement": "mitochondrial membrane protein release", "setting": "[4]", "result": "release of cytochrome c and ARTS from mitochondria"}, {"measurement": "intracellular ROS (H2DCFDA fluorescence)", "setting": "[5]", "result": "rapid accumulation of superoxide anions"}, {"measurement": "decrease in intra-tumor vascularization (MECA-32 microvessel density)", "setting": "[6]; 10 mg/kg i.p. daily, 3 days", "result": "54±13", "unit": "%"}, {"measurement": "decrease in intra-tumor vascularization (MECA-32 microvessel density)", "setting": "[6]; 25 mg/kg i.p. daily, 3 days", "result": "68±6", "unit": "%"}, {"measurement": "decrease in intra-tumor vascularization (MECA-32 microvessel density)", "setting": "[6]; 50 mg/kg i.p. daily, 3 days", "result": "90±3", "unit": "%"}, {"measurement": "tumor histology", "setting": "[6]; 10, 25 and 50 mg/kg, 3 days", "result": "largely necrotic"}, {"measurement": "cell death in tumor sections (TUNEL)", "setting": "[6]; low to high doses, data not shown", "result": "most of the leukemic cells were non-viable"}, {"measurement": "VCAM-1 expression in tumors", "setting": "[7]", "result": "significantly decreased VCAM-1 expression"}, {"measurement": "CD34+ cell viability (Annexin/PI staining)", "setting": "[8]; 48 h with SCF 50 ng/ml", "result": "only minimal effect on cell viability"}, {"measurement": "colony-forming potential of CD34+ cells", "setting": "[8]; methylcellulose, 14 days", "result": "did not impair colony-forming potential"}]}]}
